# How the values were obtained:
# AMARE [1] = assay: Pre-emergence herbicidal action against AMARE; type: in vivo, Amaranthus retroflexus; settings: Amaranthus retroflexus, 504 h, scored visually after 3 weeks vs untreated controls, 100% = plants have died, 0% = like control plants
# Method in brief: (§1)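 Greenhouse pots of sandy loam held seeds covered with soil, onto which the compound was applied before emergence. An aqueous suspension or emulsion of WP or EC was used at 600 to 800 l/ha with 0.2% wetting agent. Percent damage was judged visually at 3 weeks.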
# MATIN [2] = assay: Pre-emergence herbicidal action against MATIN; type: in vivo, Matricaria inodora; settings: Tripleurospermum inodorum, 504 h; for pest or weed control at 20 g/ha: dosage 20 g/ha; for pest or weed control at 80 g/ha: dosage 80 g/ha
# Method in brief: as §1
# VIOTR [3] = assay: Post-emergence herbicidal action against VIOTR; type: in vivo, Viola tricolor; settings: Viola tricolor, 504 h
# Method in brief: (§2)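 Foliar application at one-leaf stage of formulated test compounds, aqueous spray at 600–800 l/ha with 0.2% wetting agent. Greenhouse, optimal conditions, ~3 weeks; damage scored visually in % relative to untreated plants.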
# STEME [4] = assay: Post-emergence herbicidal action against STEME; type: in vivo, Stellaria media; settings: Stellaria media, 504 h; for pest or weed control at 5 g/ha: dosage 5 g/ha
# Method in brief: as §2
# PHBPU [5] = assay: Post-emergence herbicidal action against PHBPU; type: in vivo, Pharbitis purpurea; settings: Ipomoea purpurea, 504 h; for pest or weed control at 20 g/ha: dosage 20 g/ha
# Method in brief: as §2
# AVEFA [6] = assay: Pre-emergence herbicidal action against AVEFA; type: in vivo, Avena fatua; settings: Avena fatua, 504 h, pre-emergence
# Method in brief: as §1
# ALOMY [7] = assay: Pre-emergence herbicidal action against ALOMY; type: in vivo, Alopecurus myosuroides; settings: Alopecurus myosuroides, 504 h; 80 g/ha, pre-emergence, scored visually after 3 weeks vs untreated controls (100% = plants have died, 0% = like control plants)
# Method in brief: as §1
# ALOMY [8] = assay: Post-emergence herbicidal action against ALOMY; type: in vivo, Alopecurus myosuroides; settings: Alopecurus myosuroides, 504 h, dosage 20 g/ha, visual assessment about 3 weeks after treatment vs untreated controls
# Method in brief: as §2
# SETVI [9] = assay: Pre-emergence herbicidal action against SETVI; type: in vivo, Setaria viridis; settings: Setaria viridis, 504 h; for pest or weed control at 20 g/ha: dosage 20 g/ha; for pest or weed control at 80 g/ha: dosage 80 g/ha
# Method in brief: as §1
# HORMU [10] = assay: Pre-emergence herbicidal action against HORMU; type: in vivo, Hordeum murinum; settings: Hordeum murinum, 504 h; 80 g/ha, pre-emergence
# Method in brief: as §1
# ECHCG [11] = assay: Post-emergence herbicidal action against ECHCG; type: in vivo, Echinochloa crus-galli; settings: Echinochloa crus-galli, 504 h; for pest or weed control at 20 g/ha: dosage 20 g/ha
# Method in brief: as §2
# VERPE [12] = assay: Pre-emergence herbicidal action against VERPE; type: in vivo, Veronica persica; settings: Veronica persica, 504 h
# Method in brief: as §1
# VERPE [13] = assay: Post-emergence herbicidal action against VERPE; type: in vivo, Veronica persica; settings: Veronica persica, 504 h, 20 g/ha
# Method in brief: as §2
# MATIN [14] = assay: Post-emergence herbicidal action against MATIN; type: in vivo, Matricaria inodora; settings: Tripleurospermum inodorum, 504 h; for pest or weed control at 5 g/ha: dosage 5 g/ha; for pest or weed control at 20 g/ha: dosage 20 g/ha
# Method in brief: as §2
# POLCO [15] = assay: Post-emergence herbicidal action against POLCO; type: in vivo, Polygonum convolvulus; settings: Fallopia convolvulus, 504 h, dosage 20 g/ha
# Method in brief: as §2
# STEME [16] = assay: Pre-emergence herbicidal action against STEME; type: in vivo, Stellaria media; settings: Stellaria media, 504 h; for pest or weed control at 20 g/ha: dosage 20 g/ha; for pest or weed control at 80 g/ha: dosage 80 g/ha
# Method in brief: as §1
# LOLRI = assay: Pre-emergence herbicidal action against LOLRI; type: in vivo, Lolium rigidum; settings: Lolium rigidum, 504 h, 80 g/ha
# Method in brief: as §1
# SETVI [17] = assay: Post-emergence herbicidal action against SETVI; type: in vivo, Setaria viridis; settings: Setaria viridis, 504 h; for pest or weed control at 5 g/ha: dosage 5 g/ha; for pest or weed control at 20 g/ha: dosage 20 g/ha
# Method in brief: as §2
# AMARE [18] = assay: Post-emergence herbicidal action against AMARE; type: in vivo, Amaranthus retroflexus; settings: Amaranthus retroflexus, 504 h, 20 g/ha, visual assessment about 3 weeks after treatment, 100% = plants have died, 0% = like control plants
# Method in brief: as §2
# VIOTR [19] = assay: Pre-emergence herbicidal action against VIOTR; type: in vivo, Viola tricolor; settings: Viola tricolor, 504 h; for pest or weed control at 20 g/ha: dosage 20 g/ha; for pest or weed control at 80 g/ha: dosage 80 g/ha
# Method in brief: as §1
# ECHCG [20] = assay: Pre-emergence herbicidal action against ECHCG; type: in vivo, Echinochloa crus-galli; settings: Echinochloa crus-galli, 504 h, 80 g/ha
# Method in brief: as §1
# DIGSA [21] = assay: Post-emergence herbicidal action against DIGSA; type: in vivo, Digitaria sanguinalis; settings: Digitaria sanguinalis, 504 h
# Method in brief: as §2
# ABUTH [22] = assay: Post-emergence herbicidal action against ABUTH; type: in vivo, Abutilon theophrasti; settings: Abutilon theophrasti, 504 h, visual assessment about 3 weeks after treatment vs untreated controls; for pest or weed control at 5 g/ha: dosage 5 g/ha; for pest or weed control at 20 g/ha: dosage 20 g/ha
# Method in brief: as §2
# ABUTH [23] = assay: Pre-emergence herbicidal action against ABUTH; type: in vivo, Abutilon theophrasti; settings: Abutilon theophrasti, 504 h; for pest or weed control at 80 g/ha: scored visually after 3 weeks vs untreated controls (100% = plants have died, 0% = like control plants); for pest or weed control at 20 g/ha: dosage 20 g/ha, scored visually after 3 weeks vs untreated controls, 100% = plants have died, 0% = like control plants, read-out: Pre-emergence action against ABUTH (herbicidal activity in percent)
# Method in brief: as §1
# DIGSA [24] = assay: Pre-emergence herbicidal action against DIGSA; type: in vivo, Digitaria sanguinalis; settings: Digitaria sanguinalis, 504 h; for pest or weed control at 20 g/ha: dosage 20 g/ha; for pest or weed control at 80 g/ha: dosage 80 g/ha
# Method in brief: as §1
# PHBPU [25] = assay: Pre-emergence herbicidal action against PHBPU; type: in vivo, Pharbitis purpurea; settings: Ipomoea purpurea, 504 h; for pest or weed control at 80 g/ha: dosage 80 g/ha
# Method in brief: as §1
# AVEFA [26] = assay: Post-emergence herbicidal action against AVEFA; type: in vivo, Avena fatua; settings: Avena fatua, 504 h, 20 g/ha, visual assessment about 3 weeks after treatment, 100% = plants have died, 0% = like control plants
# Method in brief: as §2
# HORMU [27] = assay: Post-emergence herbicidal action against HORMU; type: in vivo, Hordeum murinum; settings: Hordeum murinum, 504 h, dosage 20 g/ha
# Method in brief: as §2
# POLCO [28] = assay: Pre-emergence herbicidal action against POLCO; type: in vivo, Polygonum convolvulus; settings: Fallopia convolvulus, 504 h, dosage 80 g/ha
# Method in brief: as §1
smiles,measurement,setting,value
Cc1c(C(=O)Nc2nnnn2C)ccc(C(F)(F)F)c1C(=O)NC1CC1 [Example 1-27],pest or weed control at 20 g/ha,AMARE [1],100%
same,pest or weed control at 80 g/ha,AMARE [1],100%
same,pest or weed control at 20 g/ha,MATIN [2],100%
same,pest or weed control at 80 g/ha,MATIN [2],100%
same,pest or weed control at 5 g/ha,VIOTR [3]; 5 g/ha,100%
same,pest or weed control at 20 g/ha,VIOTR [3],100%
same,pest or weed control at 20 g/ha,STEME [4],100%
same,pest or weed control at 5 g/ha,STEME [4],100%
same,pest or weed control at 20 g/ha,PHBPU [5],90%
same,pest or weed control at 80 g/ha,AVEFA [6],100%
same,pest or weed control at 80 g/ha,ALOMY [7],90%
same,pest or weed control at 20 g/ha,ALOMY [8],100%
same,pest or weed control at 20 g/ha,SETVI [9],100%
same,pest or weed control at 80 g/ha,SETVI [9],100%
same,pest or weed control at 80 g/ha,HORMU [10],80%
same,pest or weed control at 20 g/ha,ECHCG [11],80%
same,pest or weed control at 20 g/ha,VERPE [12]; dosage 20 g/ha,80%
same,pest or weed control at 80 g/ha,VERPE [12]; dosage 80 g/ha,90%
same,pest or weed control at 20 g/ha,VERPE [13],100%
same,pest or weed control at 5 g/ha,MATIN [14],80%
same,pest or weed control at 20 g/ha,MATIN [14],100%
same,pest or weed control at 20 g/ha,POLCO [15],90%
same,pest or weed control at 20 g/ha,STEME [16],90%
same,pest or weed control at 80 g/ha,STEME [16],100%
same,pest or weed control at 80 g/ha,LOLRI,80%
same,pest or weed control at 5 g/ha,SETVI [17],100%
same,pest or weed control at 20 g/ha,SETVI [17],100%
same,pest or weed control at 20 g/ha,AMARE [18],100%
same,pest or weed control at 20 g/ha,VIOTR [19],100%
same,pest or weed control at 80 g/ha,VIOTR [19],100%
same,pest or weed control at 80 g/ha,ECHCG [20],100%
same,pest or weed control at 5 g/ha,DIGSA [21],90%
same,pest or weed control at 20 g/ha,DIGSA [21],100%
same,pest or weed control at 5 g/ha,ABUTH [22],100%
same,pest or weed control at 20 g/ha,ABUTH [22],100%
same,pest or weed control at 80 g/ha,ABUTH [23],100%
same,pest or weed control at 20 g/ha,ABUTH [23],100%
same,pest or weed control at 20 g/ha,DIGSA [24],100%
same,pest or weed control at 80 g/ha,DIGSA [24],100%
same,pest or weed control at 80 g/ha,PHBPU [25],100%
same,pest or weed control at 20 g/ha,AVEFA [26],100%
same,pest or weed control at 20 g/ha,HORMU [27],80%
CCNC(=O)c1c(C(F)(F)F)ccc(C(=O)Nc2nnnn2CC)c1C [Example 2-26],pest or weed control at 20 g/ha,AMARE [1],100%
same,pest or weed control at 80 g/ha,AMARE [1],100%
same,pest or weed control at 20 g/ha,MATIN [2],100%
same,pest or weed control at 80 g/ha,MATIN [2],100%
same,pest or weed control at 20 g/ha,VIOTR [3],80%
same,pest or weed control at 20 g/ha,STEME [4],90%
same,pest or weed control at 5 g/ha,STEME [4],80%
same,pest or weed control at 5 g/ha,PHBPU [5]; dosage 5 g/ha,80%
same,pest or weed control at 20 g/ha,PHBPU [5],80%
same,pest or weed control at 80 g/ha,AVEFA [6],100%
same,pest or weed control at 20 g/ha,"AVEFA [6]; 20 g/ha, scored visually after 3 weeks, 100% = plants have died, 0% = like control plants",80%
same,pest or weed control at 80 g/ha,ALOMY [7],100%
same,pest or weed control at 20 g/ha,ALOMY [8],80%
same,pest or weed control at 20 g/ha,SETVI [9],80%
same,pest or weed control at 80 g/ha,SETVI [9],100%
same,pest or weed control at 80 g/ha,HORMU [10],90%
same,pest or weed control at 5 g/ha,ECHCG [11]; dosage 5 g/ha,80%
same,pest or weed control at 20 g/ha,ECHCG [11],80%
same,pest or weed control at 5 g/ha,MATIN [14],80%
same,pest or weed control at 20 g/ha,MATIN [14],90%
same,pest or weed control at 20 g/ha,POLCO [15],80%
same,pest or weed control at 20 g/ha,STEME [16],100%
same,pest or weed control at 80 g/ha,STEME [16],100%
same,pest or weed control at 5 g/ha,SETVI [17],80%
same,pest or weed control at 20 g/ha,SETVI [17],100%
same,pest or weed control at 20 g/ha,AMARE [18],100%
same,pest or weed control at 80 g/ha,POLCO [28],80%
same,pest or weed control at 20 g/ha,VIOTR [19],100%
same,pest or weed control at 80 g/ha,VIOTR [19],100%
same,pest or weed control at 80 g/ha,ECHCG [20],100%
same,pest or weed control at 5 g/ha,DIGSA [21],90%
same,pest or weed control at 20 g/ha,DIGSA [21],90%
same,pest or weed control at 5 g/ha,ABUTH [22],100%
same,pest or weed control at 20 g/ha,ABUTH [22],100%
same,pest or weed control at 80 g/ha,ABUTH [23],100%
same,pest or weed control at 20 g/ha,ABUTH [23],100%
same,pest or weed control at 20 g/ha,DIGSA [24],100%
same,pest or weed control at 80 g/ha,DIGSA [24],100%
same,pest or weed control at 20 g/ha,PHBPU [25]; dosage 20 g/ha,90%
same,pest or weed control at 80 g/ha,PHBPU [25],100%
same,pest or weed control at 20 g/ha,AVEFA [26],80%
same,pest or weed control at 20 g/ha,HORMU [27],80%

# Source: patent US12655116B2, “Substituted isophthalic acid diamides” (Bayer Aktiengesellschaft, priority 2020, dated 2026)
